60 compounds from patent publication US20220324865A1 (Bayer Aktiengesellschaft, priority 2018, published 2022) can be followed below.

This experiment has as its target T1, human EP3 receptor (Homo sapiens, UniProt P43115).
T1 construct: expressed in transfected cells; host or cells: CHO K1 (Chinese Hamster Ovary), stably co-transfected with Galpha16 and mitochondrial clytin
T1 sequence (P43115 1-390): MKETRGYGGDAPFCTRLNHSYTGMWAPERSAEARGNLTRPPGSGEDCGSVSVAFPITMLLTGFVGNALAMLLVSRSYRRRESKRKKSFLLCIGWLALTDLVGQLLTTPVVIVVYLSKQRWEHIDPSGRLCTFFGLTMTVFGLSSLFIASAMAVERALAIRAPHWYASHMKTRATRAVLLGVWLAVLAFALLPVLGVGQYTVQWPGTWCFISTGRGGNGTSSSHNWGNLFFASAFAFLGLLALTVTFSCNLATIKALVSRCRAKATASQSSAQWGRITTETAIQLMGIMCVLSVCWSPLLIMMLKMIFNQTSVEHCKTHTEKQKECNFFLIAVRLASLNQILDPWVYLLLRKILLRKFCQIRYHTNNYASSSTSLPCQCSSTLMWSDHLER
Put plainly: Cellular in vitro assay for determining EP3 receptor activity (human EP3 cell line, sulprostone-stimulated calcium luminescence). The conditions noted are these: CHO cells expressing human EP3 and mitochondrial Clytin; antagonist mode, sulprostone at EC50; read-out: EP3 CHO mtCLY ANTAG IC50. The class given is cell-based. The essentials:
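CHO K1 cells stably expressing human EP3 with Gα16 and mitochondrial Clytin, loaded overnight with coelenterazine. Compounds added 10 min before sulprostone at its EC50; antagonism read immediately as reduced calcium-driven luminescence, quadruplicate points.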
As to `Cc1ccc(-c2cn3nc(C(=O)NC4(c5ccc(F)cc5)CN(C)C4)cc3c(=O)[nH]2)cc1Cl` [6-123], the half-maximal inhibitory concentration (IC50) (as a rule, the midpoint of a concentration-inhibition curve) came to 5.63 nM.

In the case of `Cc1cc(-c2cn3nc(C(=O)NCCN(CC(F)F)C4CC4)c(C4CC4)c3c(=O)[nH]2)ccc1C(F)(F)F` [6-128], the IC50 amounted to 9.25 nM.

As to `Cc1cc(-c2cn3nc(C(=O)N[C@H](c4ccc(F)cc4)C(C)(C)O)c(C4CC4)c3c(=O)[nH]2)ccc1C(F)(F)F` [6-134], the half-maximal inhibitory concentration (IC50) came to 8.6 nM.

With `COC[C@@H](NC(=O)c1nn2cc(-c3ccc(C(F)(F)F)c(C)c3)[nH]c(=O)c2c1C1CC1)c1ccccc1` [6-135], the IC50 was found to be 2.55 nM.

`COC[C@@H](C)NC(=O)c1nn2cc(-c3ccc(C(F)(F)F)c(C)c3)[nH]c(=O)c2c1C1CC1` [6-136]: the 50% inhibitory concentration (IC50) was found to be 7.5 nM.

Turning to `COC[C@H](NC(=O)c1nn2cc(-c3ccc(C(F)(F)F)c(C)c3)[nH]c(=O)c2c1C1CC1)c1ccccc1` [6-137], the IC50 is 1.4 nM.

With `Cc1ccc(-c2cn3nc(C(=O)N[C@@H](c4ccc(F)cc4)C(F)(F)CO)c(C(F)(F)F)c3c(=O)[nH]2)cc1F` [6-141], the IC50 was 2.23 nM.

Regarding `Cc1ccc(-c2cn3nc(C(=O)N[C@@H](c4ccccc4)C(C)(C)O)c(C(F)(F)F)c3c(=O)[nH]2)cc1F` [6-143], the half-maximal inhibitory concentration (IC50) was found to be 4.35 nM.

Turning to `Cc1ccc(-c2cn3nc(C(=O)Nc4cccc(O)c4)c(C(F)(F)F)c3c(=O)[nH]2)cc1F` [6-144], the half-inhibitory concentration (IC50) is 3.5 nM.

Turning to `Cc1ccc(-c2cn3nc(C(=O)NC4(C)CCC4)c(C(F)(F)F)c3c(=O)[nH]2)cc1F` [6-146], the IC50 is 10 nM.

`Cc1ccc(-c2cn3nc(C(=O)NCCC(F)(F)F)c(C(F)(F)F)c3c(=O)[nH]2)cc1F` [6-148]: the IC50 stood at 8.4 nM.

For `Cc1ccc(-c2cn3nc(C(=O)NCCN(CC(F)F)C4CC4)c(C(F)(F)F)c3c(=O)[nH]2)cc1Cl` [6-152], the IC50 amounted to 4.75 nM.

As for `Cc1ccc(-c2cn3nc(C(=O)N[C@@H](c4ccc(F)cc4)C(F)(F)CO)c(C(F)(F)F)c3c(=O)[nH]2)cc1Cl` [6-157], the IC50 stood at 0.92 nM.

`Cc1ccc(-c2cn3nc(C(=O)N[C@@H](C)C4CC4)c(C(F)(F)F)c3c(=O)[nH]2)cc1Cl` [6-164]: the IC50 stood at 1.04 nM.

For the compound `Cc1ccc(-c2cn3nc(C(=O)NCCNCC(F)F)c(C(F)(F)F)c3c(=O)[nH]2)cc1Cl` [6-165], the IC50 amounted to 9.75 nM.

Take `Cc1ccc(-c2cn3nc(C(=O)N[C@H](C)C4CC4)c(C(F)(F)F)c3c(=O)[nH]2)cc1Cl` [6-172]: the 50% inhibitory concentration (IC50) worked out at 1.7 nM.

Turning to `COC[C@@H](NC(=O)c1nn2cc(-c3ccc(C)c(Cl)c3)[nH]c(=O)c2c1C(F)(F)F)c1ccccc1` [6-177], the IC50 was 0.67 nM.

On to `Cc1ccc(-c2cn3nc(C(=O)N[C@H]4c5ccccc5C[C@H]4O)c(C(F)(F)F)c3c(=O)[nH]2)cc1Cl` [6-185], for which the IC50 amounted to 2.35 nM.

`Cc1ccc(-c2cn3nc(C(=O)N[C@H]4CCOC4)c(C(F)(F)F)c3c(=O)[nH]2)cc1Cl` [6-186]: the concentration for half-maximal inhibition (IC50) is 5.35 nM.

With `Cc1ccc(-c2cn3nc(C(=O)N[C@@H](C)C(C)C)c(C(F)(F)F)c3c(=O)[nH]2)cc1Cl` [6-187], the IC50 amounted to 1.45 nM.

For `Cc1ccc(-c2cn3nc(C(=O)N[C@H](C)C(C)C)c(C(F)(F)F)c3c(=O)[nH]2)cc1Cl` [6-189], the IC50 amounted to 1.35 nM.

For `CC[C@H](C)NC(=O)c1nn2cc(-c3ccc(C)c(Cl)c3)[nH]c(=O)c2c1C(F)(F)F` [6-190], the 50% inhibitory concentration (IC50) was 2.25 nM.

Consider `Cc1ccc(-c2cn3nc(C(=O)NC(C)(C)C4CC4)c(C(F)(F)F)c3c(=O)[nH]2)cc1Cl` [6-191], for which the IC50 is 0.97 nM.

With `Cc1ccc(-c2cn3nc(C(=O)N[C@H](C)C(C)(C)C)c(C(F)(F)F)c3c(=O)[nH]2)cc1Cl` [6-192], the IC50 turned out to be 3.03 nM.

With `Cc1ccc(-c2cn3nc(C(=O)N[C@H](CCO)c4ccc(F)cc4)c(C(F)(F)F)c3c(=O)[nH]2)cc1Cl` [6-196], the 50% inhibitory concentration (IC50) was determined as 0.29 nM.

Turning to `Cc1ccc(-c2cn3nc(C(=O)NC4(c5ccc(F)cc5)CN(CC(F)(F)F)C4)c(C(F)(F)F)c3c(=O)[nH]2)cc1Cl` [6-201], the IC50 was 3.05 nM.

As to `Cc1ccc(-c2cn3nc(C(=O)NC4(c5ccc(F)cc5)CN(CC(F)F)C4)c(C(F)(F)F)c3c(=O)[nH]2)cc1Cl` [6-202], the IC50 turned out to be 0.97 nM.

As for `Cc1ccc(-c2cn3nc(C(=O)NC4(c5ccc(F)cc5)CN(C5CC5)C4)c(C(F)(F)F)c3c(=O)[nH]2)cc1Cl` [6-203], the half-inhibitory concentration (IC50) amounted to 1.5 nM.

`Cc1cc(-c2cn3nc(C(=O)NC4(c5ccc(F)cc5)CN(C)C4)c(C(F)(F)F)c3c(=O)[nH]2)ccc1Cl` [6-207]: the 50% inhibitory concentration (IC50) worked out at 4.35 nM.

`COc1ccc(C2(NC(=O)c3nn4cc(-c5ccc(Cl)c(C)c5)[nH]c(=O)c4c3C(F)(F)F)CN(C)C2)cc1` [6-213]: the IC50 is 3.15 nM.

As to `Cc1cc(-c2cn3nc(C(=O)N[C@@H](C)C4CC4)c(C(F)(F)F)c3c(=O)[nH]2)ccc1Cl` [6-214], the IC50 was 1.35 nM.

For `Cc1cc(-c2cn3nc(C(=O)N[C@@H](C)C(C)C)c(C(F)(F)F)c3c(=O)[nH]2)ccc1Cl` [6-215], the half-inhibitory concentration (IC50) was determined as 2.7 nM.

With `CC[C@H](C)NC(=O)c1nn2cc(-c3ccc(Cl)c(C)c3)[nH]c(=O)c2c1C(F)(F)F` [6-216], the IC50 turned out to be 5.2 nM.

For the compound `Cc1cc(-c2cn3nc(C(=O)N[C@H](C)C(C)C)c(C(F)(F)F)c3c(=O)[nH]2)ccc1Cl` [6-217], the concentration for half-maximal inhibition (IC50) was determined as 1.95 nM.

As to `Cc1cc(-c2cn3nc(C(=O)N[C@H](C)C4CC4)c(C(F)(F)F)c3c(=O)[nH]2)ccc1Cl` [6-218], the IC50 was 1.95 nM.

Regarding `Cc1cc(-c2cn3nc(C(=O)NC(C)(C)C4CC4)c(C(F)(F)F)c3c(=O)[nH]2)ccc1Cl` [6-220], the concentration for half-maximal inhibition (IC50) worked out at 1.18 nM.

In the case of `Cc1cc(-c2cn3nc(C(=O)NC4CC(F)(F)C4)c(C(F)(F)F)c3c(=O)[nH]2)ccc1Cl` [6-225], the concentration for half-maximal inhibition (IC50) was 7.4 nM.

In the case of `CC[C@@H](C)NC(=O)c1nn2cc(-c3ccc(Cl)c(C)c3)[nH]c(=O)c2c1C(F)(F)F` [6-227], the half-inhibitory concentration (IC50) was 6.67 nM.

For the compound `Cc1cc(-c2cn3nc(C(=O)NC4(c5ccccc5)CCOCC4)c(C(F)(F)F)c3c(=O)[nH]2)ccc1Cl` [6-230], the 50% inhibitory concentration (IC50) came to 1.6 nM.

Consider `Cc1cc(-c2cn3nc(C(=O)N[C@H](CN4CC(F)C4)c4ccc(F)cc4)c(C(F)(F)F)c3c(=O)[nH]2)ccc1Cl` [6-231], for which the IC50 was found to be 3.25 nM.

Turning to `Cc1cc(-c2cn3nc(C(=O)N[C@H](CCO)c4ccc(F)cc4)c(C(F)(F)F)c3c(=O)[nH]2)ccc1Cl` [6-233], the IC50 was found to be 0.37 nM.

Regarding `Cc1cc(-c2cn3nc(C(=O)NC4(c5ccc(F)cc5)CN(CC(F)(F)F)C4)c(C(F)(F)F)c3c(=O)[nH]2)ccc1Cl` [6-237], the concentration for half-maximal inhibition (IC50) turned out to be 1.9 nM.

Consider `Cc1cc(-c2cn3nc(C(=O)NC4(c5ccc(F)cc5)CN(C5CC5)C4)c(C(F)(F)F)c3c(=O)[nH]2)ccc1Cl` [6-238], for which the half-inhibitory concentration (IC50) turned out to be 1.4 nM.

For the compound `Cc1cc(-c2cn3nc(C(=O)NC4(c5ccc(F)cc5)CN(CC(F)F)C4)c(C(F)(F)F)c3c(=O)[nH]2)ccc1Cl` [6-239], the concentration for half-maximal inhibition (IC50) came out at 3.1 nM.

As to `Cc1ccc(-c2cn3nc(C(=O)N[C@@H](c4ccc(F)cc4)C(C)(C)O)c(C4CC4)c3c(=O)[nH]2)cc1C(F)(F)F` [6-246], the half-inhibitory concentration (IC50) is 5.8 nM.

`Cc1ccc(-c2cn3nc(C(=O)N[C@@H](C)C(C)C)c(C4CC4)c3c(=O)[nH]2)cc1Cl` [6-252]: the IC50 stood at 0.84 nM.

Take `Cc1ccc(-c2cn3nc(C(=O)N[C@@H](C)C(C)(C)C)c(C4CC4)c3c(=O)[nH]2)cc1Cl` [6-253]: the half-inhibitory concentration (IC50) turned out to be 4.75 nM.

Take `Cc1ccc(-c2cn3nc(C(=O)N[C@@H](C)C4CC4)c(C4CC4)c3c(=O)[nH]2)cc1Cl` [6-254]: the IC50 was 2.3 nM.

With `Cc1ccc(-c2cn3nc(C(=O)NC4CC(F)(F)C4)c(C4CC4)c3c(=O)[nH]2)cc1Cl` [6-255], the 50% inhibitory concentration (IC50) is 0.95 nM.

On to `Cc1ccc(-c2cn3nc(C(=O)N[C@@H](c4ccc(F)cc4)C(F)(F)CO)c(C4CC4)c3c(=O)[nH]2)cc1Cl` [6-256], for which the half-inhibitory concentration (IC50) stood at 1.1 nM.

With `COc1ccc(C2(NC(=O)c3nn4cc(-c5ccc(C)c(Cl)c5)[nH]c(=O)c4c3C3CC3)CN(C)C2)cc1` [6-257], the IC50 is 3.3 nM.

With `Cc1ccc(-c2cn3nc(C(=O)NCC(O)(C(F)(F)F)C(F)(F)F)c(C4CC4)c3c(=O)[nH]2)cc1Cl` [6-261], the concentration for half-maximal inhibition (IC50) amounted to 2.7 nM.

On to `Cc1ccc(-c2cn3nc(C(=O)NC4(c5ccc(F)cc5)CN(C)C4)c(C4CC4)c3c(=O)[nH]2)cc1Cl` [6-262], for which the IC50 was found to be 2.8 nM.

As for `Cc1ccc(-c2cn3nc(C(=O)N[C@@H](C)CCO)c(C4CC4)c3c(=O)[nH]2)cc1Cl` [6-270], the IC50 is 2.67 nM.

With `CC[C@@H](C)NC(=O)c1nn2cc(-c3ccc(C)c(Cl)c3)[nH]c(=O)c2c1C1CC1` [6-271], the IC50 is 0.87 nM.

Regarding `Cc1ccc(-c2cn3nc(C(=O)N[C@@H](c4ccc(F)cc4)[C@H](O)C(F)(F)F)c(C4CC4)c3c(=O)[nH]2)cc1Cl` [6-272], the IC50 was 1.22 nM.

For `Cc1ccc(-c2cn3nc(C(=O)N[C@@H](c4ccc(F)cc4)[C@@H](O)C(F)(F)F)c(C4CC4)c3c(=O)[nH]2)cc1Cl` [6-273], the IC50 came out at 1.1 nM.

On to `Cc1ccc(-c2cn3nc(C(=O)N[C@H](C)C(C)C)c(C4CC4)c3c(=O)[nH]2)cc1Cl` [6-274], for which the half-inhibitory concentration (IC50) was 1.3 nM.

As for `Cc1ccc(-c2cn3nc(C(=O)N[C@@H](C4CC4)C(C)(C)O)c(C4CC4)c3c(=O)[nH]2)cc1Cl` [6-275], the 50% inhibitory concentration (IC50) came to 2.85 nM.

Take `COC[C@H](NC(=O)c1nn2cc(-c3ccc(C)c(Cl)c3)[nH]c(=O)c2c1C1CC1)c1ccccc1` [6-277]: the IC50 worked out at 4.1 nM.
